The values below come from patent publication US20230134986A1, “GLUCOSE TRIPTOLIDE CONJUGATES AND USES THEREOF” (The Johns Hopkins University, priority 2020, published 2023).

“Also recorded” adds a separate entry of the source.

Assay [1] deals with T1, TFIIH (Homo sapiens, UniProt P19447).
T1 construct: made in house
The assay can be described thus: DNA-dependent ATPase activity assay of TFIIH. Format: biochemical. The method, then: ATPase activity assay. The TFIIH complex was purified and its DNA-dependent ATPase assay was performed as previously described (Titov et al. (2011) Nat. Chem. Biol. 7:182-88). Briefly, a 10-μl reaction mixture contained 20 mM Tris (pH 7.9), 4 mM MgCl2, 1 μM of ATP, 0.1 μCi [^γ-^32P]ATP (3000 Ci/mmol), 100 μg/ml BSA, 100 nM RNA Polymerase II promoter positive control DNA, 1 nM TFIIH and indicated concentrations of triptolide or its analogs. The reactions were started by either addition of TFIIH for 2 hr and stopped by addition of 2 μl of 0.5 M EDTA. An aliquot of 1 μl reaction mixture was spotted on PEI-cellulose (sigma) and the chromatogram was developed with 0.5 M LiCi and 1 M HCOOH. The percent of ATP hydrolysis was quantified using a Typhoon FLA 9500 Variable Imager (GE Healthcare).

Assay [2] has as its system DLD-1 GLUT1 knockout (GLUT1 KO) cells. The assay can be described thus: DLD-1 GLUT1 knockout proliferation under hypoxia or normoxia. It is filed as cell-based, human.

As for `CC(C)[C@]12O[C@H]1[C@@H]1O[C@]13[C@]1(O[C@H]1C[C@H]1C4=C(CC[C@@]13C)C(=O)OC4)[C@@H]2OC(=O)CCCO[C@@H]1OC(CO)[C@@H](O)C(O)C1O` (stereo in doubt) [Compound 1], the “inhibition of ATPase activity of TFIIH” value in assay [1] is reported as “only a small fraction of the activity was affected; also recorded: does not inhibit”. In assay [2] (Homo sapiens, DLD-1, GLUT1 knockout cell line, hypoxic conditions (1% oxygen)), this compound registered an IC50 of 2500 nM. Besides, in assay [2] (normoxia (20% oxygen)), the “difference in sensitivity between DLD-1 WT and GLUT1 KO” value is “no difference in sensitivity”.
